The text below walks through data of PMC9234961 (Journal of Medicinal Chemistry, 2022).

Series [1] is described as follows: in vitro. The format is in vitro ADME. The settings on record: pH 7.4, 10 µM, 16 h at 30 °C.
The nature of series [2]: Microsomal clearance assay (HLM). The class given is in vitro ADME. The conditions noted are these: human liver microsomes, 1 μM compound; for microsomal CLint at 1 μM: both sexes, pH 7.4. The method, then:
(§1) 6. Supplementary experimental: in vitro DMPK assays
(§2) 6.1 Microsomal clearance assay
(§3) Microsomal clearance was determined in female CD1 mice, female Sprague–Dawley rats, and mixed gender human liver microsomes obtained from BioIVT (Peterborough, U.K.) following incubation of 1 μM compound at 37 °C in 0.5 mg/mL microsomal protein, 3 mmol/L MgCl2, 1 mmol/L NADPH, 2.5 mmol/L and 10 mmol/L phosphate buffer (pH 7.4) (all purchased from Sigma-Aldrich, Gillingham, U.K). Reactions were started by addition of the cofactors following 10 min preincubation of microsomes with test compound and were terminated at −1, 0, 5, 10, 15, and 30 min with three volumes of ice-cold methanol containing internal standard. Samples were centrifuged at 2800g for 30 min at 4 °C and the supernatants analyzed.
(§4) Control incubations were prepared as above with omission of cofactors. Compound measurements were […]
(§5) separation with a 3 min gradient of 0.1% formic acid in methanol on a Kinetex C18, 50 × 2.1 mm 2.6 μm UPLC column (Phenomenex, Macclesfield, UK). […]

Series [3] can be described thus: Microsomal clearance assay (RLM). The class given is in vitro ADME. The conditions noted are these: rat liver microsomes, 1 μM compound; for microsomal CLint at 1 μM: female, Sprague-Dawley, pH 7.4. The method, then: as §1, §2, §3, §4, §5
Another series is described as follows: NMR solubility assay. The format is physicochemical. The settings on record: pH 8, aqueous buffer, kinetic from dmso stock; read-out: Aq. Sol. How it is done: 4. Supplementary experimental: physicochemical assays
0.5 mM TCEP, 10% D2O) was pipetted into the same well and mixed by up-down pipetting 3 times to create […]
It was then separated by centrifugation (1000 rpm
The plate was then sealed and incubated at room temperature for 20 hours, […]
165 µL of the supernatant was transferred to a 3 mm NMR tube (Bruker, Part No. Z112272) using liquid handler SamplePro Tube SJ S (Bruker). The concentration of the solubilized compound in solubility sample is measured by quantitative 1H-NMR using a single external standard (200 µM caffeine (Sigma, C1778) in PBS (pH 7.4) with 1% DMSO-d6).
The detail of the NMR method is as following: NMR data was collected on a Bruker Avance Neo 600 spectrometer equipped with a 5 mm TCI-CryoProbe. The 1H spectrum was referenced to the internal deuterated solvent. The operating frequency for 1H was 600 MHz. All NMR data were acquired at the […]
1H-NMR spectrum was acquired using a Bruker standard 1D lc1pngppsf2 pulse sequence with 32 scans.
The sweep width was 6.2 ppm with O1P set to 8.8 ppm, and the FID contained 16k time-domain data points. Relaxation delay was set to 20 sec. Water signal was suppressed. […]

The nature of series [4]: logD7.4 assay (Chrom log D method). The format is physicochemical. The conditions noted are these: pH 7.4, read-out: Measured logD7.4. How it is done:
Calibration, validation and in-house compounds were prepared at 1mM in 10% DMSO / 90% Trizma solution (100mM Trizma in 75/25 methanol/water). 3 µL standard injections (with needle wash) of all calibration, validation and in-house samples were made onto a Phenomenex Luna C8 column (3µm, 100 x 4.6 mm, 100A, Phenomenex, Torrence, USA). Chromatographic separation at 30°C was carried out using […]
2 mL/min. The gradient was held at 0:100 water:organic for 0.8 minutes, then returned to the starting conditions of 95:5 water:organic for 0.2 minutes. The column was re-equilibrated for 5 minutes at the […]

Series [5] concerns the target T1, human BCL6 BTB domain (Homo sapiens, UniProt P41182). The series is described as follows: biochemical.
Series [6] in a line: in vitro. The format is in vitro ADME. The settings on record: bovine; fraction unbound in OCI-Ly1 DC50 assay medium; read-out: fu,media.
The target of series [7] is endogenous BCL6 in OCI-Ly1 cells (Homo sapiens, UniProt P41182). The series is described as follows: cell-based. The settings on record: for MSD degrader assay [OCI-Ly1] Dmax: mean maximal degradation of BCL6; for degradation of BCL6 (in words): OCI-Ly1 MSD assay.
Series [8] can be described thus: Microsomal clearance assay (MLM). The class given is in vitro ADME. The conditions noted are these: female, CD1, pH 7.4; mouse liver microsomes, 1 μM compound. The method, then: as §1, §2, §3, §4, §5
Another series deals with SU-DHL-4. The series is described as follows: Cell proliferation assay (14 days), SU-DHL-4. The conditions noted are these: Homo sapiens, SU-DHL-4, 336 h, read-out: SU-DHL-4 GI50.
The next series relates to Karpas 422. The series is described as follows: Cell proliferation assay (14 days), Karpas 422. The conditions noted are these: Homo sapiens, KARPAS-422, 336 h, read-out: Karpas 422 GI50.
In a further series the test system is HT. The series is described as follows: Cell proliferation assay (14 days), HT. The conditions noted are these: Homo sapiens, HT, 336 h, read-out: HT GI50.
Another series relates to OCI-Ly3. The series is described as follows: Cell proliferation assay (14 days), OCI-Ly3. The settings on record: Homo sapiens, OCI-Ly3, 336 h, read-out: OCI-Ly3 GI50.
Series [9] has as its target T1, human BCL6 BTB domain.
The target of the next series is BCL6 in Karpas 422 cells (Homo sapiens, UniProt P41182). The series is described as follows: cell-based. The conditions noted are these: read-out: MSD degrader assay [Karpas 422] DC50; Karpas 422 cells. The method, then: 3.2 Mesoscale Discovery (MSD) Degradation Assay
An MSD assay was developed for screening of compounds to determine the degradation of endogenous BCL6 in OCI-Ly1 cells. Briefly, test compounds in DMSO or DMSO alone to a total of 1332.5 nL/well were dispensed to a 96-well Nunc™ Edge 2 plate (ThermoFisher Scientific, 267544) using an Echo® 550 acoustic […]
supplemented with 10% heat-inactivated fetal bovine serum (Sera Plus, PAN Biotech, P30-3702) were […]
incubation at 37 °C + 5% CO2 the plate was centrifuged at 300 x g for 5 minutes. […]
plate washer for all wash and aspiration steps, media was removed and cells were rinsed with PBS, centrifuged as before and PBS removed. Cells were lysed in 50 µL ice-cold lysis buffer at pH 7.4 containing 50 mM Tris-HCl, 150 mM NaCl, 1 % Triton X-100 (v/v), 1 mM PMSF, 1 mM activated sodium vanadate, 1 mM EDTA, phosphatase inhibitors 2 and 3 (1:50 dilution) and protease inhibitor cocktail (1:100 dilution).
20 °C or continuing the assay. A 96-well MSD standard bind plate (MSD, L15XA-3) which was coated overnight with 1 µg/mL anti-human BCL6 goat antibody in PBS (R&D Systems, AF5046) was blocked in 3% BSA in TBS + 0.1% Tween-20 for 1 hour with shaking. Wells were emptied thoroughly before 40 µL/well of lysate was transferred from the cell plate. The MSD plate was incubated at RT for 1 hour with shaking then washed three times with TBS + 0.1 % Tween-20. Antibodies were prepared in TBS + 0.1% Tween-20 + 1% BSA. Anti-human BCL6 rabbit antibody (Cell Signalling Technology, 14895S) was added at 1:100 dilution at 25 µL/well. The plate was incubated and washed as before. MSD Sulfo-tag anti-rabbit detection antibody (MSD, R32AB-1) at 1:1000 dilution at 25 µL/well was added. The plate was incubated and washed as before and MSD Gold read buffer (MSD R92TG) at 1:1 dilution with water at 150 µL/well was added. The plate was read within 10 minutes on the MSD Quickplex reader. The % inhibition at each […]
3.3 Cell proliferation assay
Aldrich) supplemented with 10% FBS (Gibco). […]
transferred onto the cells.
Assay plates containing cells […]

Another series deals with OCI-Ly1. The series is described as follows: Cell proliferation assay (14 days), OCI-Ly1. The conditions noted are these: Homo sapiens, OCI-Ly1, 336 h, read-out: OCI-Ly1 GI50.
The mark [10] stands for this setting: BCL6 TR-FRET IC50 individual replicates, single replicate values.
Where [11] appears, read: OCI-Ly1, read-out: MSD degrader assay [OCI-LY1] Dmax individual replicates, single replicate values.
[12] abbreviates: OCI-Ly1, read-out: MSD degrader assay [OCI-Ly1] Dmax, mean maximal degradation of BCL6, OCI-Ly1 cells, 2 h.
The mark [13] stands for this setting: read-out: MSD degrader assay [OCI-LY1] DC50 individual replicates, single replicate values.
Where [14] appears, read: read-out: MSD degrader assay [OCI-Ly1] DC50, geometric mean, OCI-Ly1 cells, 2 h incubation.

The structures appear in SMILES notation. Converted amounts (≈) assume the structure as drawn. “And” between values parts separate entries of the source, which are not always exact repeats. Identical values can stand only once. Like-named read-outs stand apart in the source and are kept apart here. Some results are limits rather than exact numbers.

Description for HT: (§6) Cells were seeded in 96-well culture plates at a density of 2500 cells/well in RPMI-1640 medium (Sigma-
(§7) Aldrich) supplemented with 10% FBS (Gibco). Compounds were initially dispensed into 96-well U-bottom
(§8) plates using an Echo 550 acoustic dispenser (Labcyte Inc.), then diluted in RPMI-1640 medium and
(§9) transferred onto the cells. Cells were treated with 8 compound concentrations in duplicate, ranging from
(§10) with compound for 14 days, with medium changes at days 3, 7 and 10 carried out as follows: fresh 96-well
(§11) cell culture plates were prepared containing 100 µl medium plus compound at the assay concentrations
(§12) (white plates were used on day 10 to optimise luminescence measurement). Assay plates containing cells
(§13) were vortexed to mix and cell density in one control well was counted using a Coulter Z2 cell counter
(§14) (Beckman Coulter). The volume of medium containing 2500 cells in the control well was calculated and this volume of cells was transferred from every well of the assay plates to the corresponding well of the fresh plates containing compound. After 14 days, CellTiter Glo reagent (Promega) was added to the medium in each well of the assay plate at a ratio of 1:2, mixed on a plate shaker, then incubated at room temperature for 10 minutes. Luminescence was measured using an Envision plate reader (Perkin Elmer) and the relative luminescence at each compound concentration, compared to DMSO alone, was calculated. GI50 were determined using a 4-parameter curve fit in Dotmatics (Bishops Stortford, UK).
Description for OCI-Ly3: as §6, §7, §8, §9, §10, §11, §12, §13, §14
Description for SU-DHL-4: as §6, §7, §8, §9, §10, §11, §12, §13, §14

Consider `C[C@H]1C[C@@H](O)CN(c2ncc(Cl)c(Nc3ccc4c(c3)n(CCC(C)(C)O)c(=O)n4C)n2)C1` (relative stereo) [compound 5, 5-((5-Chloro-2-(3-hydroxy-5-methylpiperidin-1-yl)pyrimidin-4-yl)amino)-3-(3-hydroxy-3-methylbutyl)-1-methyl-1,3-dihydro-2H-benzo[d]imidazol-2-one], for which the Papp in “in vitro [1]” (PAMPA) is 23 ×10⁻⁶ cm/s. The intrinsic clearance (microsomal CLint) at 1 μM in series [2] is 28 µL/min/mg; in [3] it was 14 µL/min/mg; in series [8], 122 µL/min/mg. Also, the solubility kinetic at 20 h in the series “NMR solubility assay” worked out at 40 µM (≈ 19 µg/mL). In [4], the chromatographic logD amounted to 2.3. Besides, the concentration for half-maximal inhibition (IC50) is 95 nM against human BCL6 BTB domain [5] (BCL6 TR-FRET IC50, geometric mean, BCOR-AF633 peptide, 2 h incubation); 101 nM and 99.6 nM and 94.3 nM and 86.2 nM on human BCL6 BTB domain [5] (setting [10]); 95.1 nM on human BCL6 BTB domain [5] (BCL6 TR-FRET pIC50 mean, mean of replicates). In addition, in the series “in vitro [6]”, the fraction unbound was found to be 0.37. For the same molecule, the values for the Dmax in series [7] (setting [11]) and in series [7] (setting [12]) were 91% and 88.8%, respectively. The “MSD degrader assay [OCI-Ly1] Dmax” value in series [7] (OCI-Ly1 cells, 2 h) worked out at 89%. Also, in [7] (mean of replicates), the “MSD degrader assay [OCI-LY1] pDC50 mean” value was 7.4626. Also, the DC50 in series [7] (read-out: Calculated free DC50 [OCI-Ly1], DC50 corrected with fu,media) was 12.4 nM; in series [7] (setting [13]), 66 nM and 18 nM; in series [7] (setting [14]), 35 nM and 34.5 nM. Further, the “MSD degrader assay [OCI-LY1] Dmax individual replicates” value in series [7] (single replicate values) is 86.653%.
As to `C[C@@H]1C[C@H](O)CN(c2ncc(Cl)c(Nc3ccc4c(c3)c3c(c(=O)n4C)OCC(F)(F)[C@H](C4CC4)N3)n2)C1` [12b CCT373567, (S)-10-((5-Chloro-2-((3S,5R)-3-hydroxy-5-methylpiperidin-1-yl)pyrimidin-4-yl)amino)-2-cyclopropyl-3,3-difluoro-7-methyl-1,2,3,4-tetrahydro-[1,4]oxazepino[2,3-c]quinolin-6(7H)-one], the GI50 in the series with SU-DHL-4 worked out at 820 nM; in the series with Karpas 422 it was 38 nM; with HT it was 362 nM; with OCI-Ly3, 2140 nM; in the series with OCI-Ly1, 83 nM. The “PAMPA (pH 7.4)” value in the series “in vitro [1]” was determined as 16 ×10–6 cm s–1. Moreover, the microsomal CLint at 1 μM in [2] and in series [3] was 3 µL/min/mg in each case. Also, the “CLint (HLM)” value in series [2] was “low clearance”. Further, in [3], the “CLint (RLM)” value is “low clearance”. For the same molecule, the “BCL6 TR-FRET pIC50 mean” value at human BCL6 BTB domain [9] (mean of replicates) was determined as 8.5554. Further, the IC50 was 2.8 nM at human BCL6 BTB domain [9] (read-out: BCL6 TR-FRET IC50, geometric mean, BCOR-AF633 peptide, 2 h incubation); 2.8 nM on human BCL6 BTB domain [9] (read-out: BCL6 TR-FRET IC50 individual replicates, single replicate values); 3.9 nM and 2.4 nM (2×) and 2.6 nM against human BCL6 BTB domain [5] (setting [10]). Moreover, the DC50 (on BCL6 in Karpas 422 cells; in [7] (setting [13]); in series [7] (setting [14])) was greater than 2000 nM throughout. The chromatographic logD in [4] worked out at 2.9. Further, the maximal degradation (Dmax) in series [7] (setting [11]) and in series [7] (setting [12]) was less than 30% in each case. Also, the “degradation of BCL6 (in words)” value in [7] was “no degradation was seen”; in series [7] (listed as 12b), “nondegrading isomer”. For the same molecule, the “MSD degrader assay [OCI-Ly1] Dmax” value in series [7] (OCI-Ly1 cells, 2 h) was greater than 30%. Also, in series [8], the microsomal CLint at 0.5 h, 1 µM turned out to be 90 µL/min/mg.
